According to patent US20260007681A1, “INDOLE DERIVATIVES AS ESTROGEN RECEPTOR DEGRADERS” (REGENTS OF THE UNIVERSITY OF MICHIGAN, priority 2022, published 2026):

Biological target: ER (Homo sapiens (Human), UniProt P03372)
Assay: Western blot analysis (Compounds B1-B278)
Assay type: cell-based
Conditions: ER degradation by traditional Western blot; DC50 classes
Outline: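 Relative target-protein levels come from densitometry of immunoblots, normalized to GAPDH. Lysates from treated cells were prepared in RIPA buffer (pH 7.6) containing protease inhibitors, and equal protein amounts, checked by BCA, were separated on 10% gels and blotted onto PVDF.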

Sequence of ER (P03372 whole entry): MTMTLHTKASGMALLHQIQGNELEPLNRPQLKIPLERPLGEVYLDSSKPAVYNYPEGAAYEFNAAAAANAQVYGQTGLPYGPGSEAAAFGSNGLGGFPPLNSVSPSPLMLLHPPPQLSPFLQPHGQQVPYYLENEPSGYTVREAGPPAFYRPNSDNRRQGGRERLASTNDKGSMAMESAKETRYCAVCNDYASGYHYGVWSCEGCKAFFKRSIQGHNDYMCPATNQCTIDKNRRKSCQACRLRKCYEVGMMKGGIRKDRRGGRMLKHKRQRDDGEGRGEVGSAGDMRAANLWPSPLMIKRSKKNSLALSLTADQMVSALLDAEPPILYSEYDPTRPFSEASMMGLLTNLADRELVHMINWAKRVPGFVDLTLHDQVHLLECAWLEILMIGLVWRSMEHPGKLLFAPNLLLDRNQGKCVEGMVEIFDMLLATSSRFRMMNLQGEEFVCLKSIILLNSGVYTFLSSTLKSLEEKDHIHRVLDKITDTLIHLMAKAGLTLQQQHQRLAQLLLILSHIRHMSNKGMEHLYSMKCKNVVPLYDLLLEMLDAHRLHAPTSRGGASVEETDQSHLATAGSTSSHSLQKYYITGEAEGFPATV

Row | Compound | Traditional Western Degradation Potency
1 | C[C@@H]1Cc2c([nH]c3ccccc23)[C@@H](c2c(F)cc(-c3ccc(C(=O)N4CCC(N5Cc6cc7c(cc6C5)C(=O)N(C5CCC(=O)NC5=O)C7=O)CC4)nc3)cc2F)N1CC(F)F (stereo partly drawn) [Compound B87, 6-(1-(5-(4-((1R,3R)-2-(2,2-difluoroethyl)-3-methyl-2,3,4,9-tetrahydro-1H-pyrido[3,4-b]indol-1-yl)-3,5-difluorophenyl)picolinoyl)piperidin-4-yl)-2-(2,6-dioxopiperidin-3-yl)-6,7-dihydropyrrolo[3,4-f]isoindole-1,3(2H,5H)-dione] | B (“B”: 10-100 nM)
2 | C[C@@H]1Cc2c([nH]c3ccccc23)[C@@H](c2c(F)cc(-c3ncc(C(=O)N4CCC(N5Cc6cc7c(cc6C5)C(=O)N(C5CCC(=O)NC5=O)C7=O)CC4)cn3)cc2F)N1CC(F)F (stereo partly drawn) [Compound B92, 6-(1-(2-(4-((1R,3R)-2-(2,2-difluoroethyl)-3-methyl-2,3,4,9-tetrahydro-1H-pyrido[3,4-b]indol-1-yl)-3,5-difluorophenyl)pyrimidine-5-carbonyl)piperidin-4-yl)-2-(2,6-dioxopiperidin-3-yl)-6,7-dihydropyrrolo[3,4-f]isoindole-1,3(2H,5H)-dione] | A (“A”: <10 nM)
3 | C[C@@H]1Cc2c([nH]c3ccccc23)[C@@H](c2c(F)cc(-c3ccc(C(=O)N4CCC(N5Cc6cc7c(cc6C5)C(=O)N(C5CCC(=O)NC5=O)C7=O)CC4)cc3)cc2F)N1CC(F)F (stereo partly drawn) [Compound B93, 6-(1-(4′-((1R,3R)-2-(2,2-difluoroethyl)-3-methyl-2,3,4,9-tetrahydro-1H-pyrido[3,4-b]indol-1-yl)-3′,5′-difluoro-[1,1′-biphenyl]-4-carbonyl)piperidin-4-yl)-2-(2,6-dioxopiperidin-3-yl)-6,7-dihydropyrrolo[3,4-f]isoindole-1,3(2H,5H)-dione] | A (“A”: <10 nM)
4 | C[C@@H]1Cc2c([nH]c3ccccc23)[C@@H](c2c(F)cc(C(=O)N3CCC4(CC3)CC(CN3Cc5cc6c(cc5C3)C(=O)N(C3CCC(=O)NC3=O)C6=O)C4)cc2F)N1CC(F)F (stereo partly drawn) [Compound B97, 6-((7-(4-((1R,3R)-2-(2,2-difluoroethyl)-3-methyl-2,3,4,9-tetrahydro-1H-pyrido[3,4-b]indol-1-yl)-3,5-difluorobenzoyl)-7-azaspiro[3.5]nonan-2-yl)methyl)-2-(2,6-dioxopiperidin-3-yl)-6,7-dihydropyrrolo[3,4-f]isoindole-1,3(2H,5H)-dione] | C (“C”: >100 nM)
5 | C[C@@H]1Cc2c([nH]c3ccccc23)[C@@H](c2c(F)cc(CN3CCC4(CC3)CC(CN3Cc5cc6c(cc5C3)C(=O)N(C3CCC(=O)NC3=O)C6=O)C4)cc2F)N1CC(F)F (stereo partly drawn) [Compound B98, 6-((7-(4-((1R,3R)-2-(2,2-difluoroethyl)-3-methyl-2,3,4,9-tetrahydro-1H-pyrido[3,4-b]indol-1-yl)-3,5-difluorobenzyl)-7-azaspiro[3.5]nonan-2-yl)methyl)-2-(2,6-dioxopiperidin-3-yl)-6,7-dihydropyrrolo[3,4-f]isoindole-1,3(2H,5H)-dione] | C (“C”: >100 nM)
6 | C[C@@H]1Cc2c([nH]c3ccccc23)[C@@H](c2c(F)cc(C(=O)N3CCC4(CCC(CN5Cc6cc7c(cc6C5)C(=O)N(C5CCC(=O)NC5=O)C7=O)CC4)CC3)cc2F)N1CC(F)F (stereo partly drawn) [Compound B99, 6-((3-(4-((1R,3R)-2-(2,2-difluoroethyl)-3-methyl-2,3,4,9-tetrahydro-1H-pyrido[3,4-b]indol-1-yl)-3,5-difluorobenzoyl)-3-azaspiro[5.5]undecan-9-yl)methyl)-2-(2,6-dioxopiperidin-3-yl)-6,7-dihydropyrrolo[3,4-f]isoindole-1,3(2H,5H)-dione] | C (“C”: >100 nM)
7 | C[C@@H]1Cc2c([nH]c3ccccc23)[C@H](c2c(F)cc(C(=O)N3CCC4(CCC(CN5Cc6cc7c(cc6C5)C(=O)N(C5CCC(=O)NC5=O)C7=O)CC4)CC3)cc2F)N1CC(F)F (stereo partly drawn) [Compound B100, 6-((3-(4-((1S,3R)-2-(2,2-difluoroethyl)-3-methyl-2,3,4,9-tetrahydro-1H-pyrido[3,4-b]indol-1-yl)-3,5-difluorobenzoyl)-3-azaspiro[5.5]undecan-9-yl)methyl)-2-(2,6-dioxopiperidin-3-yl)-6,7-dihydropyrrolo[3,4-f]isoindole-1,3(2H,5H)-dione] | C (“C”: >100 nM)

Further lines, results first:

Row | Traditional Western Degradation Potency | Compound
8 | A (“A”: <10 nM) | C[C@@H]1Cc2c([nH]c3ccccc23)[C@@H](c2c(F)cc(C3CCC(C(=O)N4CCC(N5Cc6cc7c(cc6C5)C(=O)N(C5CCC(=O)NC5=O)C7)CC4)CC3)cc2F)N1CC(F)F (stereo partly drawn) [Compound B84, 3-(6-(1-(4-(4-((1R,3R)-2-(2,2-difluoroethyl)-3-methyl-2,3,4,9-tetrahydro-1H-pyrido[3,4-b]indol-1-yl)-3,5-difluorophenyl)cyclohexane-1-carbonyl)piperidin-4-yl)-1-oxo-3,5,6,7-tetrahydropyrrolo[3,4-f]isoindol-2(1H)-yl)piperidine-2,6-dione]
9 | B (“B”: 10-100 nM) | C[C@@H]1Cc2c([nH]c3ccccc23)[C@@H](c2c(F)cc(C3CCC(CN4CCC(N5Cc6cc7c(cc6C5)C(=O)N(C5CCC(=O)NC5=O)C7)CC4)CC3)cc2F)N1CC(F)F (stereo partly drawn) [Compound B85, 3-(6-(1-((4-(4-((1R,3R)-2-(2,2-difluoroethyl)-3-methyl-2,3,4,9-tetrahydro-1H-pyrido[3,4-b]indol-1-yl)-3,5-difluorophenyl)cyclohexyl)methyl)piperidin-4-yl)-1-oxo-3,5,6,7-tetrahydropyrrolo[3,4-f]isoindol-2(1H)-yl)piperidine-2,6-dione]
10 | B (“B”: 10-100 nM) | C[C@@H]1Cc2c([nH]c3ccccc23)[C@@H](c2c(F)cc(-c3cnc(C(=O)N4CCC(N5Cc6cc7c(cc6C5)C(=O)N(C5CCC(=O)NC5=O)C7=O)CC4)nc3)cc2F)N1CC(F)F (stereo partly drawn) [Compound B86, 6-(1-(5-(4-((1R,3R)-2-(2,2-difluoroethyl)-3-methyl-2,3,4,9-tetrahydro-1H-pyrido[3,4-b]indol-1-yl)-3,5-difluorophenyl)pyrimidine-2-carbonyl)piperidin-4-yl)-2-(2,6-dioxopiperidin-3-yl)-6,7-dihydropyrrolo[3,4-f]isoindole-1,3(2H,5H)-dione]
11 | C (“C”: >100 nM) | C[C@@H]1Cc2c([nH]c3ccccc23)[C@@H](c2c(F)cc(-c3ccc(CN4CCC(N5Cc6cc7c(cc6C5)C(=O)N(C5CCC(=O)NC5=O)C7=O)CC4)nc3)cc2F)N1CC(F)F (stereo partly drawn) [Compound B88, 6-(1-((5-(4-((1R,3R)-2-(2,2-difluoroethyl)-3-methyl-2,3,4,9-tetrahydro-1H-pyrido[3,4-b]indol-1-yl)-3,5-difluorophenyl)pyridin-2-yl)methyl)piperidin-4-yl)-2-(2,6-dioxopiperidin-3-yl)-6,7-dihydropyrrolo[3,4-f]isoindole-1,3(2H,5H)-dione]
12 | A (“A”: <10 nM) | C[C@@H]1Cc2c([nH]c3ccccc23)[C@@H](c2c(F)cc(-c3ccc(C(=O)N4CCC(N5Cc6cc7c(cc6C5)C(=O)N(C5CCC(=O)NC5=O)C7=O)CC4)cn3)cc2F)N1CC(F)F (stereo partly drawn) [Compound B89, 6-(1-(6-(4-((1R,3R)-2-(2,2-difluoroethyl)-3-methyl-2,3,4,9-tetrahydro-1H-pyrido[3,4-b]indol-1-yl)-3,5-difluorophenyl)nicotinoyl)piperidin-4-yl)-2-(2,6-dioxopiperidin-3-yl)-6,7-dihydropyrrolo[3,4-f]isoindole-1,3(2H,5H)-dione]
13 | B (“B”: 10-100 nM) | C[C@@H]1Cc2c([nH]c3ccccc23)[C@@H](c2c(F)cc(-c3ccc(C(=O)N4CCC(N5Cc6cc7c(cc6C5)C(=O)N(C5CCC(=O)NC5=O)C7=O)CC4)nn3)cc2F)N1CC(F)F (stereo partly drawn) [Compound B91, 6-(1-(6-(4-((1R,3R)-2-(2,2-difluoroethyl)-3-methyl-2,3,4,9-tetrahydro-1H-pyrido[3,4-b]indol-1-yl)-3,5-difluorophenyl)pyridazine-3-carbonyl)piperidin-4-yl)-2-(2,6-dioxopiperidin-3-yl)-6,7-dihydropyrrolo[3,4-f]isoindole-1,3(2H,5H)-dione]
14 | B (“B”: 10-100 nM) | C[C@@H]1Cc2c([nH]c3ccccc23)[C@@H](c2c(F)cc(C3CCN(C(=O)C4CCC(N5Cc6cc7c(cc6C5)C(=O)N(C5CCC(=O)NC5=O)C7=O)CC4)CC3)cc2F)N1CC(F)F (stereo partly drawn) [Compound B94, 6-(4-(4-(4-((1R,3R)-2-(2,2-difluoroethyl)-3-methyl-2,3,4,9-tetrahydro-1H-pyrido[3,4-b]indol-1-yl)-3,5-difluorophenyl)piperidine-1-carbonyl)cyclohexyl)-2-(2,6-dioxopiperidin-3-yl)-6,7-dihydropyrrolo[3,4-f]isoindole-1,3(2H,5H)-dione]
15 | C (“C”: >100 nM) | C[C@@H]1Cc2c([nH]c3ccccc23)[C@@H](c2c(F)cc(C3CCN(C[C@H]4CC[C@H](N5Cc6cc7c(cc6C5)C(=O)N(C5CCC(=O)NC5=O)C7=O)CC4)CC3)cc2F)N1CC(F)F (stereo partly drawn) [Compound B95, 6-((1R,4r)-4-((4-(4-((1R,3R)-2-(2,2-difluoroethyl)-3-methyl-2,3,4,9-tetrahydro-1H-pyrido[3,4-b]indol-1-yl)-3,5-difluorophenyl)piperidin-1-yl)methyl)cyclohexyl)-2-(2,6-dioxopiperidin-3-yl)-6,7-dihydropyrrolo[3,4-f]isoindole-1,3(2H,5H)-dione]
16 | C (“C”: >100 nM) | C[C@@H]1Cc2c([nH]c3ccccc23)[C@@H](c2c(F)cc(C3CCN(C[C@H]4CC[C@H](N5Cc6cc7c(cc6C5)C(=O)N(C5CCC(=O)NC5=O)C7=O)CC4)CC3)cc2F)N1CC(F)F (stereo partly drawn) [Compound B96, 6-((1R,4r)-4-((4-(4-((1R,3R)-2-(2,2-difluoroethyl)-3-methyl-2,3,4,9-tetrahydro-1H-pyrido[3,4-b]indol-1-yl)-3,5-difluorophenyl)piperidin-1-yl)methyl)cyclohexyl)-2-(2,6-dioxopiperidin-3-yl)-6,7-dihydropyrrolo[3,4-f]isoindole-1,3(2H,5H)-dione]
